Laboratory results: PMC8227935, “In Silico Predicted Antifungal Peptides: In Vitro and In Vivo Anti-Candida Activity” (Journal of Fungi, 2021)
No end group written: not given here.

What was measured:
C. albicans SC5314 [1] = conditions: C. albicans SC5314, parent K10S peptide; cited from earlier work
Experimental: Candidacidal activity of all tested peptides was very fast. After 30 min, in fact, percental killing ranged from 68% (K10S-SS) to nearly 100% (R-10S-RR and K10S-I).

C. albicans SC5314 cells = conditions: parent peptide K10S; cited from earlier work
Text: The individual amino acid substitutions also influenced the possible mechanism of action of the peptides. […] All ISDPs were characterized by the ability to induce intracellular ROS production (Figure 5).

C. albicans SC5314 [2] = conditions: G. mellonella larvae infected with C. albicans, treated with parent K10S peptide; controls 24 h; previous work; cited from earlier work
Experimental: Therapeutic activity of ISDPs against C. albicans infection was evaluated in G. mellonella larvae. After the inoculum of a lethal dose of yeast cells, a single injection of peptides led to a significant increase in survival of larvae in comparison with infected animals inoculated with saline. The median survival time was 48 h for larvae treated with R10S-RR and K10S-I, and 24 h for larvae treated with K10T-TT and K10S-SS, versus 24 h for the control group. In a previous work, a median survival time of 72 h was reported for larvae treated with the parent K10S peptide in comparison with 24 h for ...

C. albicans SC5314 [3] = conditions: C. albicans SC5314, CFU assay; EC50 of K10S parent peptide; read-out: EC50 (95% Confidence Intervals); cited from earlier work
Text: Table 3 In vitro candidacidal activity of in silico designed peptides (ISDPs) against C. albicans SC5314. | column: EC50 ^1 (95% Confidence Intervals)

[4] = system: human red blood cells (hRBCs); test: Hemolytic activity, hemoglobin release; type: cell-based; conditions: human red blood cells (group 0 Rh+), 50 µM peptide, 37 °C, absorbance 540 nm, PBS 0%, Triton 1% 100%
Experimental: Hemolytic and cytotoxic effects were determined as previously described. In particular, ISDPs (final concentrations of 25, 50, and 100 µM) were tested for their hemolytic activities against human red blood cells (hRBCs) (group 0 Rh+). After 30 and 120 min incubation at 37 °C, the release of hemoglobin was monitored by measuring the absorbance of the supernatant at 540 nm. Controls for zero hemolysis (blank) and 100% hemolysis consisted of hRBCs suspended in PBS and Triton 1%, respectively.

C. albicans SC5314 [5] = type: cell-based, Candida albicans
Experimental: The candidacidal activity of ISDPs was evaluated by conventional colony forming unit (CFU) assays, as previously described. ISDPs were tested at serial dilutions to determine the half maximal effective concentration (EC50) values. Briefly, approximately 500 germinating C. albicans SC5314 cells were suspended in 100 µL of distilled water in the presence or absence (control growth) of ISDPs. After incubation at 37 °C for 6 h, cell suspensions were plated on Sabouraud dextrose agar. CFUs were enumerated after 48–72 h of incubation at 30 °C, and candidacidal activity was determined as a percentage of CFU reduction. Each assay was carried out in triplicate and at least two independent experiments were performed for each condition. EC50 was calculated by nonlinear regression analysis using GraphPad Prism 5 software. Afterwards, the kinetics of ISDPs killing activity, at their 2× EC50 value concentration, was determined by CFU assays up to 6 h. Samples were collected for CFU determination after 5, 10, 15, 20, 30, 60, 120, 240, and 360 min incubation.
Figure 1 Time kinetics of in vitro activity of in silico designed peptides (ISDPs) against Candida albicans SC5314. Peptide concentrations were equal to their 2× EC50 values. The activity is expressed as percental killing; reported data represent mean values ± standard deviation.

[6] = system: monkey kidney epithelial cells (LLC-MK2); test: MTT cytotoxicity assay; type: cell-based; conditions: 200 µM peptide, 24 h, vs. 100% of untreated control cells
Experimental: MTT assay, based on the ability of metabolically active cells to convert the yellow water-soluble tetrazolium salt into formazan crystals, was used to evaluate peptide cytotoxicity against monkey kidney epithelial cells (LLC-MK2). LLC-MK2 cells were treated with ISDPs (50, 100, and 200 µM) for 24 h. Cells in medium without peptide served as control. After this period, cells were incubated with MTT (5 mg/mL, 10 μL/well) in serum-free medium for 2 h at 37 °C, the medium was removed, and the crystal formazan dye was solubilized by adding isopropanol with 5% HCl 1 M (100 μL). Absorbance was measured at 540 nm.

KKVTMTCSAS [Peptide K10S]
percental killing at 30 min (C. albicans SC5314 [1]): 36.93%
apoptosis induction (C. albicans SC5314 cells): lack of induction of apoptotic processes
median survival time (C. albicans SC5314 [2]): 72 h
EC50 (C. albicans SC5314 [3]): 277 nM

KKVSMSCSAS [Peptide K10S-SS]
hemolysis ([4]; 30 min): 2.38%
hemolysis ([4]; 120 min): 2.01%
percental killing after 30 min (C. albicans SC5314 [5]): 68%
cell viability [6]: 92.5 ± 0.11%
